This note sets out measurements from US20060269995A1, “Novel assays utilizing nicotinic acetylcholine receptor subunits” (priority 2005, published 2006).

The subject of assay [1] is 30D (nicotinic acetylcholine receptor alpha-6 subunit). The format is cell-based, Drosophila melanogaster. Conditions: spinosyn A 10 μM for 60 seconds; oocytes clamped to −60 mV; peak current; 30D. As for the experimental part:
(§1) Xenopus laevis (Xenopus 1, Ann Arbor, Mich.; Nasco, Fort Atkinson, Wis.) were anesthetized by bathing in a solution of 2 g/l tricaine methane sulfonate, and oocytes were surgically removed from the frog and placed in a culture solution that consisted of 96 mM NaCl, 2 mM KCl, 1.8 mM CaCl2, 1 mM MgCl2, 5 mM HEPES, 2.5 mM Na-pyruvate, 100 units/ml penicillin, and 0.1 mg/ml streptomycin, pH 7.6. Oocytes were dispersed in a nominally zero Ca^2+ protease treatment solution to defolliculate the oocytes. The protease treatment solution consisted of either 88 mM NaCl, 2.5 mM KCl, 1 mM MgCl2, 5 mM HEPES, 2.5 mM Na-pyruvate, 100 units/ml penicillin, and 0.1 mg/ml streptomycin, pH 7.6 plus 1.5 mg/ml collagenase IA (Sigma Chemical Co., St. Louis, Mo.). After isolation, the oocytes were thoroughly rinsed and returned to the above Ca^2+ containing culture solution and stored at 18° C.
(§2) Synthesis of cRNA was performed as follows: Plasmid DNA was linearized with one of the following restriction enzymes; Not I, Xho I or Nhe I. The linearized DNA was subsequently used as template for cRNA synthesis using T7 mMessage mMachine kit (Ambion, Austin, Tex.) following the manufacturer's instructions.
(§3) Micropipettes for injection of cRNA into Xenopus oocytes were pulled on a DMZ-Universal Puller (Zeitz-Instruments, München, Germany). The cRNA to be injected was drawn up into the micropipette with negative pressure. Approximately 10-50 ng of cRNA was injected into the oocytes by applying positive pressure using a Nanoject II oocyte injector (Drummond Scientific Co., Broomall, Pa.). Nucleic acid was introduced into the oocytes as follows: (1) nicotinic acetylcholine receptor alpha-6 subunit subunit (30D) (2) nicotinic alpha-7 receptor subunit (34E); (3) nicotinic acetylcholine receptor alpha-6 subunit and C. elegans ric-3 (30D and ric-3); (4) nicotinic alpha-7 receptor subunit and C. elegans ric-3 (34E and ric-3); (5) nicotinic acetylcholine receptor alpha-6 subunit and nicotinic alpha-7 receptor subunit (30D and 34E); and, (6) nicotinic acetylcholine receptor alpha-6 subunit, nicotinic alpha-7 receptor subunit and C. elegans ric-3 (30D, 34E and ric-3).
(§4) The control external solution for voltage clamp recordings consisted of 88 mM NaCl, 1 mM KCl, 0.41 mM CaCl2, 2.4 mM NaHCO3, 0.3 mM Ca(NO3)2, 0.82 mM MgSO4·7 H2O, and 15 mM HEPES, pH 7.6. The recording chamber was continuously perfused with a gravity-fed perfusion system. Nicotine (1 mM) was added to the external solution and then added to the perfusate for 30 seconds. Then, nicotine was washed from the external solution a minimum of 10 minutes. Thereafter, spinosyn A was dissolved in dimethylsulfoxide (DMSO) and then dissolved in the external solution at a final concentration of 10 μM and then added to the perfusate for 60 seconds. Then, the spinosyn A was washed from the external solution. The final concentration of DMSO never exceeded 0.1% (v/v).

The test system of assay [2] is 30D/ric-3. The format is cell-based, Drosophila melanogaster. The settings on record: spinosyn A 10 μM for 60 seconds, −60 mV, peak current. How it is done: as §1, §2, §3, §4
In assay [3] the test system is 34E (nicotinic acetylcholine receptor alpha-5 subunit). The format is cell-based, Drosophila melanogaster. Conditions: spinosyn A 10 μM for 60 seconds; −60 mV; peak current; 34E. How it is done: as §1, §2, §3, §4
In assay [4] the test system is 34E/ric-3. The format is cell-based, Drosophila melanogaster. Conditions: spinosyn A 10 μM for 60 seconds; −60 mV; peak current; 34E/ric-3. How it is done:
as §1, §2, §3, §4

The test system of assay [5] is 34E/30D/ric-3. The format is cell-based, Drosophila melanogaster. Further details: key to the marks not given beside the values. The settings on record: spinosyn A 10 μM for 60 seconds, −60 mV, peak current. As for the experimental part:
as §1, §2, §3
as §4, with “Then, the spinosyn A was washed from the external solution. The final concentration of DMSO never exceeded 0.1% (v/v).” left out

Assay [6] relates to 34E/30D. It is filed as cell-based, Drosophila melanogaster. Further details: key to the marks not given beside the values. Conditions: spinosyn A 10 μM for 60 seconds, −60 mV, peak current. How it is done:
as §1, §2, §3
as §4, with “Then, the spinosyn A was washed from the external solution. The final concentration of DMSO never exceeded 0.1% (v/v).” left out

Assay [7] deals with Dα6-nicotinic receptor. The format is binding, Drosophila melanogaster. The settings on record: 10 μM; [3H]MLA; intact Xenopus oocytes 3 days post-injection with Dmα6.
Procedure: Xenopus oocytes were injected as previously described for the electrophysiological assay and were used intact for binding assays.
Two main radioligands were used in binding assays: the conventional α7 radioligand, [^3H]methyllycaconitine (MLA) and [^3H]dihydrospinosyn A (DHSA). For both radioligands, the Binding Buffer used consisted of 10 mM sodium phosphate (7.2-7.4). […] For Xenopus oocyte binding assays, oocytes were pooled (2-5 oocytes) and transferred to 1 ml Binding Buffer. This was followed by gently aspirating the Binding Buffer and replacing with fresh Binding Buffer twice, to wash out any residual oocyte bathing media. The final volume of buffer added to each pool of oocytes was 50-100 μl. […] Subsequent dilutions were made in Binding Buffer. The final concentration of solvent was maintained at less than 0.1% in each well. 25 μl of unlabeled competing compounds were added to the cell suspensions or oocytes. Cells or cell extracts were pre-incubated with compounds for 15-30 minutes, at 10° C. (for [^3H]DHSA) and room-temperature for [^3H]MLA. The samples were gently shaken using a plate shaker. […] Filter mats were dried in an oven at 60° C. and the radioactivity from samples was counted for three minutes with a Wallac MicroBeta Counter (Wallac, Conn.) using Meltilex solid-scintillant (PerkinElmer, Finland). […]
In assay [8] the test system is Drosophila melanogaster flies of the Oregon wild-type strain. The experiment in a line: Adult fly mortality screen, wild-type flies. The format is in vivo. The settings on record: 100 ppm in 10% sucrose via cotton wick, 72 hours post-treatment. How it is done:
(§5) Ten adult Drosophila melanogaster flies (5 males and 5 females) of the Oregon wild-type strain and ten adult flies of a spinosyn-resistant strain were used per treatment. Two sets (of 10 flies) were set-up per treatment. Stocks of spinosyn A and a 21-butenyl-spinosyn analog were formulated at 1000 ppm in 2:1 acetone:water and then diluted to the required concentration in 10% sucrose. Vials received 500 ul of treatment (or solvent for controls) via cotton wicks (approximately ¼ inch) and flies were added to each vial and capped with a cotton plug. Flies were monitored over 72 hours post-treatment while being maintained at room-temperature with a 12:12 light:dark cycle.
(§6) In addition, the spinosyn A resistant flies were >100-fold resistant (based on LD50) to the new class of spinosyns, represented by the 21-butenyl spinosyns.

Assay [9] deals with Drosophila melanogaster flies of a spinosyn-resistant strain. The experiment in a line: Adult fly mortality screen, spinosyn-resistant flies. It is filed as in vivo. How it is done: as §5, §6
Throughout, for Spinosyn A Response: key: '−' indicates a negligible current was induced; '+' indicates a small amplitude current; '++' indicates a moderate amplitude current; '++++' indicates a large amplitude current.

`CC[C@H]1CCC[C@H](O[C@H]2CC[C@H](N(C)C)[C@@H](C)O2)[C@@H](C)C(=O)C2=C[C@@H]3[C@@H](C=C[C@@H]4C[C@@H](O[C@@H]5O[C@@H](C)[C@H](OC)[C@@H](OC)[C@H]5OC)C[C@@H]34)[C@@H]2CC(=O)O1` [Spinosyn A, spinosyn A]: the “Spinosyn A Response” value is listed as “−” in assay [1]; “+” in [2]; “−” in assay [3]; “−” in [4]; “++++” in assay [5]; “++” in assay [6]. In addition, in assay [7], the “% Displacement of Total Binding” value came out at 72%. The mortality entry is given as “all wild-type flies exhibited mortality” in assay [8] and “no significant mortality” in assay [9] (100 ppm in 10% sucrose via cotton wick, 72 hours post-treatment, spinosyn-resistant flies). In addition, the “resistance of spinosyn A resistant flies compared to wild-type flies (based on LD50)” value in assay [9] (dose-response data, LD50, resistant vs wild-type flies) is given as “at least 100 fold”.
